Patent US6359010B1, “Methods of treating anxiety and mood disorders with oleamide” (priority 1999, dated 2002)
Read-outs that look alike come from different tables or passages of the source.

Columns and labels:
rat 5-HT2 receptor = conditions: oocytes expressing the rat 5-HT2 receptor, cited from earlier work
[1] = system: CRH release from cloned hypothalamic IVB cells; experiment: CRH release from clone IVB cells by radioimmunoassay; format: cell-based, rat
Method: (§1) Embryonic day 19 Sprague Dawley rats were humanely dissected from pregnant rats and decapitated as described by Kasckow et al. (1997). The hypothalamus was removed and sliced. Hypothalamic slices were placed in phosphate buffered saline (PBS: NaCl, 137 mM; Na2HPO4, 21 mM; KH2PO4, 29 mM; KCl, 1.2 mM; pH 7.3). Cells were dissociated for 10-15 minutes in 0.25% trypsin containing 75 units/ml of DNAse in serum-free media (SFM) consisting of a mixture of Dulbecco's modified essential medium and Ham's F-12 (1:1, v/v from Gibco) supplemented with 14 mM glucose, 15 mM NaHCO3, 5 mM Hepes and 0.05 U/ml of penicillin streptomycin (Sigma). […]
(§2) Virus producer cell line γCRE/pZIPTEX was propagated at 1×10^6 cells per 100 mm tissue culture dish in the same media used for dissociated hypothalamic cultures (SFM+7.5% fetal bovine serum). […] One cell was selected on the basis of CRH peptide production which was monitored by radioimmunoassay (described below). […]
RIA for CRH was performed according to the protocol provided by IgG Corporation (Nashville, Tenn.) utilizing the reagents provided. […] Radioactivity of the pellet was measured using a Packard Multi-Prias 4 gamma counter (Packard Instruments, Downers, Ill.).
(§3) The quantitative data obtained were expressed as mean±standard error. […]

[2] = system: N-methyl-D-aspartate (NDMA) receptor; conditions: cited from earlier work
[3] = system: c-fos mRNA in brain areas; conditions: IP, rodents, cited from earlier work
rats [4] = experiment: Elevated plus maze; format: in vivo, rat
Method: Methods for elevated plus maze testing were as follows: Based on Lister (1987), a 2 feet-4 arm radial maze consisting of 2 opposing enclosed arms (30 cm high×30 cm long×5 cm wide) and 2 opposing exposed arms (30 cm×5 cm) was constructed and was elevated on a pedestal 30 cm above the surface of a table and situated in the center of a dimly lit room. Testing was conducted in a quiet, dedicated room that was dimmed to provide 22 to 350 lux of illumination on the exposed arms of the maze and less than 1 lux within the enclosed arms. Animals were placed facing towards the enclosed arm in the center of the plus maze. […] (1992 , 1994). We assessed time in open arms and closed arms, total number of entries and rearings, based on Windle et al. (1997). All observers were blind to treatment to remove any investigator bias.

GABAA receptor = conditions: cited from earlier work
[5] = system: CRH mRNA in cloned hypothalamic IVB cells; experiment: CRH mRNA detection by Northern hybridization in clone IVB cells; format: cell-based, rat; conditions: 0 mM to 10 mM oleamide, 20 hours incubation, densitometry normalized to 28S, vs vehicle
Method: as §1, §2
Total RNA was isolated using the PUREscript RNA isolation kit (Gentra Systems, Minneapolis, Minn.). […] A Foto/Eclipse Imager (Fotodyne Inc., Hartland, Wis.) interfaced with Power Macintosh 8100/110 using NIH ImageQuant analysis software was utilized for densitometric quantitation of the mRNA bands.
as §3

5HT2 = conditions: in vivo evidence; cited from earlier work
rats [6] = conditions: cited from earlier work
5HT3 receptor = target: T1, 5HT3 receptor (Homo sapiens, UniProt P46098); conditions: cited from earlier work
T1 sequence (P46098 24-478): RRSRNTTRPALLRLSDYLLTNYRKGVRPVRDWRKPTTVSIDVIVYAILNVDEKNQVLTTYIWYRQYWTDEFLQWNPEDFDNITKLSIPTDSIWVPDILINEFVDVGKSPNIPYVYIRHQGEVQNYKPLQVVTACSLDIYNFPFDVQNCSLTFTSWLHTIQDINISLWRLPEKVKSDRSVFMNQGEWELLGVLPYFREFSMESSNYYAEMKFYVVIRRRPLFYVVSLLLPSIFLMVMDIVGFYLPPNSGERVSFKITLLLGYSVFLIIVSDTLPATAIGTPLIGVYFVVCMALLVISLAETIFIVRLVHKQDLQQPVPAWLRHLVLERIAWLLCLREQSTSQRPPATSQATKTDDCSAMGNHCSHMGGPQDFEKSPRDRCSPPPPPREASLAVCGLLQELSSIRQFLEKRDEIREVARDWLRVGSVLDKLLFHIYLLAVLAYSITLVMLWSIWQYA

## CCCCCCCCCCCCCCCCCC(N)=O [octadecanamide, reference compound]
Rat 5-HT2 receptor
  effect on 5-HT-elicited currents: opposite those of oleamide

## CCCCCCCC/C=C\CCCCCCCC(N)=O [oleamide, cis-9,10-octadecenoamide]
[1]; cloned IVB cells, 10 μM oleamide vs vehicle, n=9
  immunoreactive CRH (CRH-LI) release: significant increase
[1]; cloned hypothalamic IVB cells, concentration dependence
  release of CRH: significant concentration-dependent increases
[2]
  effects on NMDA receptor: no significant effects
[3]; 1 mg/kg
  activation of brain areas (transient induction of c-fos mRNA): not
[3]; 5 or 10 mg/kg
  activation of brain areas (transient induction of c-fos mRNA): activation of multiple brain areas
Rats [4]; 2 mg dose, rats approx. 250 g, n=10 per group
  exploratory behavior: overall increase in exploratory behavior
Rats [4]; 2 mg dose, rats, relative to vehicle, P=0.0241
  total number of entries to both open and closed arm: approximately doubled
Rats [4]; 5 min of testing, 2 mg dose, rats, control 8.2, P=0.002
  Rearings (mean): 17.2
Rats [4]; 10 min of testing, 2 mg dose, rats, control 15, P=0.01
  Rearings (mean): 24
Rats [4]; IP dosing
  overall activity: decreasing overall activity
GABAA receptor
  effects on GABAA receptor: no significant effects
[5]
  CRH mRNA (CRH synthesis): concentration-dependent manner
[5]; listed as Oleamide
  CRH mRNA (CRH synthesis): increased CRH mRNA
5HT2
  5HT2 function in vivo: indirectly potentiates
Rats [6]; doses between 5 and 150 mg
  sleep latency: reduce sleep latency
Rats [6]; intraperitoneal, doses between 5 and 50 mg
  duration of induced sleep: 1 to 2.5 h
5HT3 receptor
  effects on 5HT3 receptor: no significant effects
Rat 5-HT2 receptor
  effect on 5-HT-elicited currents: markedly potentiates
Rat 5-HT2 receptor; without 5-HT
  direct effects on 5-HT2 receptor: no significant direct effects

## CCCCCCCC/C=C\CCCCCCCC(=O)O [oleic acid, reference compound]
Rat 5-HT2 receptor
  effect on 5-HT-elicited currents: does not have any effect
